Measurements taken from US8288433B2, “Diazeniumdiolate compounds, a process for their preparation and pharmaceutical compositions containing them” (Les Laboratoires Servier, priority 2007, dated 2012).

Columns and labels:
conscious Wistar rats = test: Diuretic effect in vivo, urine volume in conscious rats; details: oral dose of 10 mg/kg, urine volume after 6 hours, relative to control group
Description: The diuretic effect is tested on conscious Wistar rats. The animals are subjected to fasting for 18 h before the experiment and put on a diet of water 90 minutes before the experiment. The product under test is then administered orally by force-feeding, the rat is placed in a metabolism cage and the volume of urine is measured after 6 hours. The volume is expressed in relation to the volume measured in a control group of rats.

[1] = tested on: Aorta rings without endothelium; test: NO-donor activity in vitro, relaxation of noradrenaline-contracted aorta rings; details: aorta rings without endothelium contracted by noradrenaline (0.1-0.3 μM); read-out: IC50 (relaxant effect)
Description: Aorta rings without endothelium are used. After a first contraction induced by 60 mM KCl to characterise the sensitivity of the ring, and washing, a stable contraction is induced by noradrenaline (0.1-0.3 μM) in the presence or absence of ODQ. A cumulative concentration series is applied and the activity of the product under test is calculated by an IC50 (dose that inhibits the maximum effect by 50%).

[2] = tested on: SD rats anaesthetised with pentobarbital; test: NO-donor activity in vivo, reduction of arterial pressure in anaesthetised rats; details: i.v. dose of 100 μg/kg
Description: The NO-donor effect of the compound is evaluated by the reduction in pressure caused in SD rats anaesthetised with pentobarbital. After stabilisation of the arterial pressure, the product under test is administered i.v. in increasing doses.

Row | SMILES | increase of the excretion of urine (conscious Wistar rats) [%] | IC50 [1] [nM] | reduction of the arterial pressure [2] [%]
1 | CCN(CC)/[N+]([O-])=N/OCOC(=O)c1ccc(CNS(=O)(=O)c2cc(C(=O)NN3c4ccccc4C[C@H]3C)ccc2Cl)cc1 [Example 10, ({[(1Z)-2,2-diethyl-1-oxidohydrazono]amino}oxy)methyl 4-({[(2-chloro-5-{[(2R)-2-methyl-2,3-dihydro-1H-indol-1-yl]carbamoyl}phenyl)-sulphonyl]amino}methyl)benzoate] | 248 | 40 | 55
2 | CCN(CC)/[N+]([O-])=N/OCOC(=O)c1cccc(CNS(=O)(=O)c2cc(C(=O)NN3c4ccc([N+](=O)[O-])cc4CC3C)ccc2Cl)c1 (stereo not drawn) [Example 1] | 108 | 120 | 56
